Source: PubChem BioAssay (NCI)
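Method: 48-hour compound exposure of cells in 96-well plates, five concentrations, linear interpolation of endpoints. GI50 marks 50% less growth. The concentration for full growth arrest is given as TGI.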

Experiments:
Assay in all cases: growth of human tumour cells (NCI), 48 h
[1] = test system: CAKI-1 renal
[2] = test system: NCI-H522 lung
[3] = test system: OVCAR-3 ovarian
[4] = test system: LOX IMVI melanoma
[5] = test system: SK-MEL-5 melanoma
[6] = test system: PC-3 prostate
[7] = test system: A549 NSCLC
[8] = test system: COLO 205 colon
[9] = test system: MOLT-4 leukemia
[10] = test system: CCRF-CEM leukemia
[11] = test system: MCF7 breast
[12] = test system: MDA-MB-435
[13] = test system: NCI-H226 lung
[14] = test system: SN12C renal
[15] = test system: NCI-H23 lung
[16] = test system: SK-MEL-2 melanoma
[17] = test system: U251 CNS
[18] = test system: ACHN renal
[19] = test system: BT-549 breast
[20] = test system: UO-31 renal
[21] = test system: UACC-62 melanoma
[22] = test system: M14 melanoma
[23] = test system: HL-60(TB) leukemia
[24] = test system: TK-10 renal
[25] = test system: HT29 colon
[26] = test system: MALME-3M melanoma
[27] = test system: HCC-2998 colon
[28] = test system: 786-0 renal
[29] = test system: HCT-116 colon
[30] = test system: EKVX NSCLC
[31] = test system: SF-295 CNS
[32] = test system: HOP-62 NSCLC
[33] = test system: NCI-H460 lung
[34] = test system: OVCAR-5 ovarian
[35] = test system: UACC-257 melanoma
[36] = test system: HCT-15 colon
[37] = test system: SF-539 CNS
[38] = test system: SK-MEL-28 melanoma
[39] = test system: SK-OV-3 ovarian
[40] = test system: SF-268 CNS
[41] = test system: T-47D breast
[42] = test system: KM12 colon
[43] = test system: RPMI-8226 leukemia
[44] = test system: DU-145 prostate
[45] = test system: OVCAR-8 ovarian
[46] = test system: IGROV1 ovarian
[47] = test system: SW-620 colon
[48] = test system: OVCAR-4 ovarian
[49] = test system: SR leukemia
[50] = test system: MDA-MB-231 breast
[51] = test system: NCI/ADR-RES ovarian
[52] = test system: RXF 393 renal
[53] = test system: K-562 leukemia
[54] = test system: SNB-75 CNS
[55] = test system: SNB-19 CNS
[56] = test system: A498 renal

## Cc1cc(N2CCOCC2)nc(NCc2cc(Nc3ccnc4cc(Cl)ccc34)ccc2F)n1
[1]
  GI50: 1630 nM
  TGI: 3140 nM
[2]
  GI50: 1950 nM
  TGI: 3850 nM
[3]
  GI50: 1720 nM
  TGI: 3160 nM
[4]
  GI50: 1750 nM
  TGI: 3270 nM
[5]
  GI50: 1560 nM
  TGI: 2940 nM
[6]
  GI50: 1800 nM
  TGI: 3480 nM
[7]
  GI50: 1870 nM
  TGI: 3600 nM
[8]
  GI50: 665 nM
  TGI: 2150 nM
[9]
  GI50: 1400 nM
  TGI: 3660 nM
[10]
  GI50: 1460 nM
  TGI: 4790 nM
[11]
  GI50: 348 nM
  TGI: 1500 nM
[12]
  GI50: 1560 nM
  TGI: 2920 nM
[13]
  GI50: 2060 nM
  TGI: 4310 nM
[14]
  GI50: 1830 nM
  TGI: 3660 nM
[15]
  GI50: 1860 nM
  TGI: 4200 nM
[16]
  GI50: 1950 nM
  TGI: 3610 nM
[17]
  GI50: 1630 nM
  TGI: 3120 nM
[18]
  GI50: 1830 nM
  TGI: 3330 nM
[19]
  GI50: 1720 nM
  TGI: 3530 nM
[20]
  GI50: 1570 nM
  TGI: 3000 nM
[21]
  GI50: 1750 nM
  TGI: 3350 nM
[22]
  GI50: 1860 nM
  TGI: 3570 nM
[23]
  GI50: 2310 nM
  TGI: 4820 nM
[24]
  GI50: 1840 nM
  TGI: 3400 nM
[25]
  GI50: 834 nM
  TGI: 2240 nM
[26]
  GI50: 1980 nM
  TGI: 3680 nM
[27]
  GI50: 1670 nM
  TGI: 3260 nM
[28]
  GI50: 1830 nM
  TGI: 3350 nM
[29]
  GI50: 1510 nM
  TGI: 3080 nM
[30]
  GI50: 1520 nM
  TGI: 3910 nM
[31]
  GI50: 1590 nM
  TGI: 3030 nM
[32]
  GI50: 1510 nM
  TGI: 2960 nM
[33]
  GI50: 1830 nM
  TGI: 3570 nM
[34]
  GI50: 1620 nM
  TGI: 3160 nM
[35]
  GI50: 1850 nM
  TGI: 3540 nM
[36]
  GI50: 1700 nM
  TGI: 3300 nM
[37]
  GI50: 1790 nM
  TGI: 3280 nM
[38]
  GI50: 1830 nM
  TGI: 3400 nM
[39]
  GI50: 1920 nM
  TGI: 3480 nM
[40]
  GI50: 1420 nM
  TGI: 3020 nM
[41]
  GI50: 1380 nM
  TGI: 3410 nM
[42]
  GI50: 1690 nM
  TGI: 3210 nM
[43]
  GI50: 2320 nM
  TGI: 5960 nM
[44]
  GI50: 1600 nM
  TGI: 3080 nM
[45]
  GI50: 1860 nM
  TGI: 3580 nM
[46]
  GI50: 1640 nM
  TGI: 3920 nM
[47]
  GI50: 1630 nM
  TGI: 3280 nM
[48]
  GI50: 1320 nM
  TGI: 3690 nM
[49]
  GI50: 1610 nM
  TGI: 3820 nM
[50]
  GI50: 1880 nM
  TGI: 3630 nM
[51]
  GI50: 1730 nM
  TGI: 3310 nM
[52]
  GI50: 1630 nM
  TGI: 3370 nM
[53]
  GI50: 1780 nM
  TGI: 4490 nM
[54]
  GI50: 1190 nM
  TGI: 2640 nM
[55]
  GI50: 1650 nM
  TGI: 3450 nM
[56]
  GI50: 894 nM
  TGI: 2250 nM
